This is an account of results in patent US5534416A, “Fluorescent viability assay using cyclic-substituted unsymmetrical cyanine dyes” (Molecular Probes, Inc., priority 1993, dated 1996).

In series [1] the test system is nucleic acids. Kind of series: Excitation/emission maxima of dyes complexed with nucleic acids. In kind it is physicochemical. Details: key: wavelength in nm. The settings on record: Table 2; dye complexed with nucleic acids. From the text: Dye I is lightly colored and is virtually non-fluorescent when diluted in aqueous solution according to the method of the invention. Dye I is highly membrane-permeant and labels all cells, whether live or dead. When Dye I binds with intracellular nucleic acid polymers such as DNA and RNA, the resultant dye-nucleic acid complex becomes extremely fluorescent upon illumination. The quantum yield of the preferred Dye I/DNA complex is greater than 0.02, typically greater than 0.1, preferably greater than 0.2, and more preferably greater than 0.3. Typically, Dye I combines with intracellular nucleic acids to give a green or red fluorescence. When excited at a wavelength between about 300 nm and about 500 nm, the dyes complexed with nucleic acids have an emission maximum between about 500 and about 610 nm (see Table 2). Preferably, Dye I complexed with nucleic acids has an emission maximum of between about 500 nm and about 535 nm, resulting in a true green fluorescent signal in cells of the sample where Dye I is present alone.

The test system of series [2] is DNA. Nature of the series: Quantum yield of dye on DNA versus fluorescein. To be noted: Table 2; Tris buffered saline pH 10; fluorescein assumed 0.92. In kind it is physicochemical. An excerpt:
^ Quantum yield (QY) of dye on DNA (standard solution in Tris buffere
saline adjusted to pH 10) in comparison with fluorescein, which is assume
to have a quantum yield of 0.92 under the test conditions.
Factors such as degree of fluorescence enhancement with nucleic acid binding, self quenching, molar extinction coefficient, membrane permeability, intracellular partitioning, nucleic acid binding affinity, and quantum yield contribute to the overall fluorescence of nucleic acid stains in cells. Enhanced cell fluorescence obtained with Dye I is related to unexpected properties other than quantum yield alone. Quantum yield is determined as described above (foot note to Table 2). Normalized quantum yield is determined to illustrate the fold-change in quantum yield of Dye I compared with thiazole orange, a related cell-permeant dye. The normalized fluorescence values represent the quantum yield of each dye divided by the quantum yield of thiazole orange. Fluorescence per cell is also scaled to thiazole orange values for both E. coli and S. aureus to allow direct comparison between relative (normalized) quantum yield and relative (normalized) fluorescence/cell.

Series [3] has as its system calf thymus DNA. The settings on record: Table 5; bound to excess calf thymus DNA (50 bp/dye); cited from earlier work.

Molecules are shown by their SMILES.

In series [1], `CN1C(=Cc2cc[n+](C3CCCCC3)c3ccccc23)Sc2ccccc21` [compound 542] displayed an EM max of 527 and an EX max of 510.

Consider `CN1C(C2CCCCC2)=CC(=Cc2sc3ccccc3[n+]2C)c2ccccc21` [compound 6104], for which, in series [1], the EM max is listed as 523 and the EX max is given as 505. Also, the “QY (DNA)” value in series [2] turned out to be 0.52.

For `CC(C)OC1=CC(=Cc2sc3ccccc3[n+]2C)c2ccccc2N1c1ccccc1` [compound 764], in series [1], the EM max stood at 508 and the EX max worked out at 486. For the same molecule, the “QY (DNA)” value in series [2] worked out at 0.58.

In the case of `C[n+]1c(C=CC=C2C=CN(CCC[N+](C)(C)C)C=C2)oc2ccccc21` [PO-PRO-3], in series [3], the EM max was 567 nm and the EX max is 539 nm.

As for `C[n+]1c(C=CC=C2C=CN(CCC[N+](C)(C)C)C=C2)sc2ccccc21` [BO-PRO-3], in series [3], the EM max is 599 nm and the EX max is reported as 575 nm.

Turning to `C[n+]1c(C=CC=C2C=CN(CCC[N+](C)(C)CCC[N+](C)(C)CCCN3C=CC(=CC=Cc4sc5ccccc5[n+]4C)C=C3)C=C2)sc2ccccc21` [BOBO-3], in series [3], the EM max was 602 nm and the EX max is 570 nm.

On to `C[n+]1c(C=CC=C2C=CN(CCC[N+](C)(C)C)c3ccccc32)sc2ccccc21` [TO-PRO-3], for which, in series [3], the EM max was 661 nm and the EX max is listed as 642 nm.

In series [1], `C[n+]1c(C=C2C=C(Br)N(c3ccccc3)c3ccccc32)sc2ccccc21` [compound 774] gave an EM max of 533 and an EX max of 517.

In series [1], `CN1C=CC(=Cc2sc3ccccc3[n+]2C)c2cccc(-c3ccccc3)c21` [compound 72] had an EM max of 535 and an EX max of 515. Further, the “QY (DNA)” value in series [2] is listed as 0.026.

As to `CC[n+]1c(-c2ccccc2)c2cc(N=[N+]=[N-])ccc2c2ccc(N)cc21` [Ethidium monoazide], in series [3], the EM max is on record as 615 nm and the EX max is 465 nm.

Take `C[n+]1c(C=C2C=C(c3ccccc3)N(c3ccccc3)c3ccccc32)sc2ccccc21` [compound 630]: in series [1], the EM max turned out to be 544 and the EX max was determined as 517. Moreover, the “QY (DNA)” value in series [2] was determined as 0.19.

In series [1], `CN1C(=Cc2cc[n+](C3CCCCC3)c3ccccc23)Sc2ccccc21` [compound 73] yielded an EM max of 525 and an EX max of 508. Also, the “QY (DNA)” value in series [2] stood at 0.31.

In the case of `C[n+]1c(C=C2C=CN(CCC[N+](C)(C)C)c3ccccc32)oc2ccccc21` [YO-PRO-1], in series [3], the EM max is 509 nm and the EX max is listed as 491 nm.

Consider `CC[n+]1c(-c2ccccc2)c2cc(N)ccc2c2ccc(N)cc21` [Ethidium bromide], for which, in series [3], the EM max is 595 nm and the EX max was 510 nm.

For the molecule `C[n+]1c(C=C2C=C(C3CCCCC3)N(c3ccccc3)c3ccccc32)sc2ccccc21` [compound 765], in series [1], the EM max worked out at 524 and the EX max is listed as 506. In addition, the “QY (DNA)” value in series [2] was 0.50.

Turning to `COc1ccc2c(c1)N(c1ccccc1)C(Cl)=CC2=Cc1sc2ccccc2[n+]1C` [compound 5103], in series [1], the EM max amounted to 530 and the EX max stood at 511. In series [2], the “QY (DNA)” value is given as 0.18.

In series [1], `COc1ccccc1N1C=CC(=Cc2sc3ccccc3[n+]2C)C=C1Cl` [compound 616] showed an EM max of 510 and an EX max of 471.

As for `C[n+]1c(C=C2C=CN(CCC[N+](C)(C)C)C=C2)oc2ccccc21` [PO-PRO-1], in series [3], the EM max is 455 nm and the EX max is 435 nm.

For the molecule `C[n+]1c(C=C2C=CN(c3ccccc3)C(Cl)=C2)sc2ccccc21` [compound 578], in series [1], the EM max was 504 and the EX max came to 470.

In series [1], `COC1=CC(=CC=Cc2oc3ccccc3[n+]2C)c2ccccc2N1c1ccccc1` [compound 672] showed an EM max of 611 and an EX max of 586.

Take `CC[N+](C)(CC)CCC[n+]1c(-c2ccccc2)c2cc(N)ccc2c2ccc(N)cc21` [Propidium iodide]: in series [3], the EM max was 617 nm and the EX max was 536 nm.

Consider `C[n+]1c(C=CC=C2C=CN(CCC[N+](C)(C)CCC[N+](C)(C)CCCN3C=CC(=CC=Cc4sc5ccccc5[n+]4C)c4ccccc43)c3ccccc32)sc2ccccc21` [TOTO-3], for which, in series [3], the EM max is 660 nm and the EX max was 642 nm.

In the case of `CCN(CC)C1=CC(=Cc2sc3ccccc3[n+]2C)c2ccc(OC)cc2N1c1ccccc1` [compound 760], in series [1], the EM max is 510 and the EX max is listed as 485. Besides, the “QY (DNA)” value in series [2] is given as 0.68.

Consider `C[n+]1c(C=C2C=C(Cl)N(c3ccccc3)c3ccccc32)oc2ccccc21` [compound 633], for which, in series [1], the EM max was 508 and the EX max is listed as 489. Besides, in series [2], the “QY (DNA)” value stood at 0.12.

In series [1], `CCOC1=CC(=Cc2sc3ccccc3[n+]2C)c2ccccc2N1c1ccccc1` [compound 720] had an EM max of 507 and an EX max of 487. In addition, the “QY (DNA)” value in series [2] was 0.52.

In series [1], `C[n+]1c(C=C2C=C(OS(=O)(=O)C(F)(F)F)N(c3ccccc3)c3ccccc32)sc2ccccc21` [compound 854] had an EM max of 520 and an EX max of 483.

In series [1], `CCCCC1=CC(=CC=Cc2sc3ccccc3[n+]2C)c2ccccc2N1c1ccccc1` [compound 621] registered an EM max of 656 and an EX max of 635.

In series [1], `C[n+]1c(C=C2C=C(Sc3ccccn3)N(c3ccccc3)c3ccccc32)sc2ccccc21` [compound 853] showed an EM max of 555 and an EX max of 516.

In series [1], `CN1C(=Cc2cc(Cl)[n+](-c3cccs3)c3ccccc23)Sc2ccccc21` [compound 830] gave an EM max of 533 and an EX max of 517.

Take `CN1C(=Cc2cc(N3CCOCC3)[n+](C)c3ccccc23)Sc2ccccc21` [compound 752]: in series [1], the EM max is 518 and the EX max is recorded as 494. Further, the “QY (DNA)” value in series [2] is 0.51.

For `CSC1=CC(=Cc2sc3ccccc3[n+]2C)c2ccccc2N1C1CCCCC1` [780 (S)], in series [2], the “QY (DNA)” value was 0.31.

On to `C[n+]1c(C=C2C=C(Cl)N(C3CCCCC3)c3ccccc32)sc2ccccc21` [780 (Cl)], for which, in series [1], the EM max was determined as 536 and the EX max was 513. For the same molecule, the “QY (DNA)” value in series [2] is given as 0.09.

In series [1], `C[n+]1c(C=C2C=C(Oc3ccccc3)N(c3ccccc3)c3ccccc32)sc2ccccc21` [compound 835] displayed an EM max of 518 and an EX max of 495.

Consider `C[n+]1c(C=C2C=CN(c3ccccc3)C=C2)sc2ccccc21` [compound 640], for which, in series [1], the EM max is 516 and the EX max is given as 471.

Regarding `CCCN(CCC)C1=CC(=Cc2sc3ccccc3[n+]2C)c2ccccc2N1c1ccccc1` [compound 776], the “QY (DNA)” value in series [2] is reported as 0.65.

`C[n+]1c(C=C2C=C(F)N(c3ccccc3)c3ccccc32)sc2ccccc21` [compound 834]: in series [1], the EM max is on record as 507 and the EX max came to 486.

As for `CSC1=CC(=Cc2sc3ccccc3[n+]2C)c2ccccc2N1c1ccccc1` [compound 641], in series [1], the EM max was 526 and the EX max is reported as 503. In addition, the “QY (DNA)” value in series [2] amounted to 0.35.

Regarding `CCCCC1=CC(=CC=Cc2sc3ccccc3[n+]2C)C=CN1c1ccccc1` [compound 742], in series [1], the EM max was determined as 611 and the EX max amounted to 570.

In series [1], `CCCCc1cc(C=C2Sc3ccccc3N2C)c2ccccc2[n+]1-c1cccs1` [compound 71] displayed an EM max of 526 and an EX max of 508. Also, in series [2], the “QY (DNA)” value is given as 0.31.

Turning to `CN1C(c2ccccc2)=CC(=Cc2sc3ccccc3[n+]2C)c2ccccc21` [compound 639], in series [1], the EM max is given as 548 and the EX max came out at 513. Besides, the “QY (DNA)” value in series [2] is 0.20.

In series [1], `COc1ccc(N2C(Cl)=CC(=Cc3sc4ccccc4[n+]3C)c3ccccc32)cc1` [compound 582] came in with an EM max of 533 and an EX max of 516.

In series [1], `CN1CCN(C2=CC(=Cc3sc4ccccc4[n+]3C)c3ccccc3N2c2ccccc2)CC1` [compound 856] had an EM max of 523 and an EX max of 502. For the same molecule, in series [2], the “QY (DNA)” value is recorded as 0.43.

In series [1], `CCN1C(=Cc2cc(Cl)[n+](-c3ccccc3)c3ccccc23)Sc2ccccc21` [compound 200] registered an EM max of 759 and an EX max of 739.

For `C[n+]1c(C=C2C=Cc3ccccc3N2c2ccccc2)sc2ccccc21` [compound 64], in series [1], the EM max is reported as 523 and the EX max was 450.
